Laboratory results published in patent US5300679A, “Substituted propane-phosphinic acid compounds” (Ciba-Geigy Corporation, priority 1987, dated 1994).

System: pyramidal cells of hippocampal slice
Test: Penicilline-induced "epileptic" hippocampal slice preparation
Format: cell-based
Details: concentration of 6 μM
Experimental: The GABAB antagonists of the present invention interact at the GABAB receptor with IC50 values starting from about 10^-7 M (moles/liter) in rat brain cortex membranes. […] The antagonism against baclofen has also been shown in in vitro electrophysiological models, such as the penicilline-induced "epileptic" hippocampal slice preparation, where baclofen, at a concentration of 6 μM inhibits "epileptic"-like discharges of pyramidal cells. The compounds of the invention antagonise the effects of baclofen at concentrations from approximately 10 to approximately 100 μM. In vivo, antagonism has been shown by ionophoresis of baclofen on rat cerebral cortex, and systemic application of antagonists in doses of 10-100 mg/kg. The muscle relaxant effects of baclofen measured in the rotarod model are also antagonized at doses of about 30 mg/kg ip.

## NCC(CC(=O)O)c1ccc(Cl)cc1 (stereo not shown) [baclofen]
  inhibition of "epileptic"-like discharges of pyramidal cells: inhibits
